In patent US11396501B2, “Heteroaryl compounds as CXCR4 inhibitors, composition and method using the same” (CGENETECH (SUZHOU, CHINA) CO., LTD., priority 2017, dated 2022):

These molecules were tested against CXCR4 (Homo sapiens, UniProt P61073) (assay: FLIPR Tetra calcium mobilization assay). Settings: Human CD4+ T-Cells; CXCL12 added; FLIPR Calcium 4 assay kit.
Format: cell-based
Protocol: FLIPR Tetra Calcium Mobilization Assay The FLIPR Tetra calcium mobilization assay was performed by HD Bioscience. Briefly, The Molecular Devices, Fluorescent Imaging Plate Reader (FLIPR) Tetra was used in this assay. Excitation was achieved through unique placement of LED's within the instrument and emission captured by a CCD camera (EMCCD camera for FI and ICCD camera for luminescence). The homogeneous FLIPR Calcium 4 assay kit from Molecular Devices was used as the fluorescence reagent. Compounds were solubilized in 100% dimethyl sulfoxide (DMSO) to a concentration of 30 mM. A 10-point, 4-fold, intermediate dilution series was created in 100% DMSO with a top concentration of 4 mM and a bottom concentration of 0.01 μM. A near assay ready, direct dilution plate ([…]) was prepared from this compound dilution plate by transferring 1 μL of each dilution of compound in 100% DMSO to a Greiner #781201 plate. In addition, each […] plate also contained positive and negative control wells to define the upper and lower limits for the assay signal. The final assay concentration range of compound was 10 μM to 0.035 nM in 0.5% DMSO. Human CD^4+ T-Cells were isolated from human whole blood and subsequently activated and expanded using a CD3/CD28 expansion kit (Life Technologies). The cells were frozen in ThermoFisher-formulated Recovery Cell Culture Freezing Medium containing 10% Dimethyl sulfoxide (DMSO) and 10% Fetal Bovine Serum (FBS) (ThermoFisher Catalog No. 10100147). When used, cells were resuspended using room temperature 1× HBSS/20 mM HEPES/0.005% P-104 assay buffer, adjusted the volume of the suspension to achieve a cell concentration of 2.5×10^6 cells/mL. 2× Calcium 4 dye (20 μL/well) were added and the mixture were centrifuged briefly ( 10 s) and stopped when it reached 1000 rpm. The plates were allowed to equilibrate before compounds and CXCL12 were added to the plates. The raw data were analyzed using Abase. The percent (%) effect at each concentration of compound was calculated by Abase and was based on and relative to the amount of calcium produced in the positive and negative control wells contained within each assay plate. The concentrations and % effect values for tested compounds were plotted by Abase and the concentration of compound required for 50% effect (IC50) was determined with a four-parameter logistic dose response equation. FIGS. 3 and 4 summarize the results of Compounds A78 and A83 in the calcium mobilization assay.

Sequence of CXCR4 (P61073 whole entry): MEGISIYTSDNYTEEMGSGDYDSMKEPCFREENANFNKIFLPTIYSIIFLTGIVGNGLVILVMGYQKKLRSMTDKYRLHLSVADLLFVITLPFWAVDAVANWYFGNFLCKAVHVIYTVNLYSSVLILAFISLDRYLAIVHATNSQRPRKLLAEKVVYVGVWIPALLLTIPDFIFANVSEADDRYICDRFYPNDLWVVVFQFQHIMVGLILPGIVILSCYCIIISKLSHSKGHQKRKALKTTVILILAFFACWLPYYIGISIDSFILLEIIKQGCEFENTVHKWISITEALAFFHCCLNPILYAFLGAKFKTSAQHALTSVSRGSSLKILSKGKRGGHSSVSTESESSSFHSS

Compound | IC50 [nM]
CN1CCN(c2cc(CN(C)c3cccc4cccnc34)nc(N(C)C)n2)CC1 [Compound D11] | 1700
COc1nc(CN(C)c2cccc3cccnc23)cc(N2CCN(C)CC2)n1 [Compound D13] | 2.9
Cc1nc(CN(C)c2c(F)ccc3cccnc23)cc(N2CCN(C)CC2)n1 [Compound D17] | 74
Cc1nc(CN(C)c2nccc3cccnc23)cc(N2CCN(C)CC2)n1 [Compound D21, N-methyl-N-((2-methyl-6-(4-methylpiperazin-1-yl)pyrimidin-4-yl)methyl)-1,7-naphthyridin-8-amine] | 1580
Cc1nc(CN(C)c2cncc3cccnc23)cc(N2CCN(C)CC2)n1 [Compound D22, N-methyl-N-((2-methyl-6-(4-methylpiperazin-1-yl)pyrimidin-4-yl)methyl)-1,6-naphthyridin-8-amine] | 965
Cc1nc(CN(C)c2ncnc3cccnc23)cc(N2CCN(C)CC2)n1 [Compound D24] | 12400
Cc1nc(CN(CCCC(=O)OC(C)(C)C)c2cccc3cccnc23)cc(N2CCN(C)CC2)n1 [Compound D29] | 12.7
Cc1nc(CN(C)c2ccc(C(F)(F)F)c3cccnc23)cc(N2CCN(C)CC2)n1 [Compound D40] | 2850
Cc1nc(CN(C)c2ccc(Br)c3cccnc23)cc(N2CCN(C)CC2)n1 [Compound D41] | 6.3
Cc1nc(CN(C)c2ccc(C#N)c3cccnc23)cc(N2CCN(C)CC2)n1 [Compound D42] | 96
Cc1nc(CN(C)c2ccc(S(C)(=O)=O)c3cccnc23)cc(N2CCN(C)CC2)n1 [Compound D43, N-methyl-N-((2-methyl-6-(4-methylpiperazin-1-yl)pyrimidin-4-yl)methyl)-5-(methylsulfonyl)quinolin-8-amine] | 3380
Cc1nc(CN(C)c2cc(C(F)(F)F)cc3cccnc23)cc(N2CCN(C)CC2)n1 [Compound D44] | 104
Cc1nc(CN(C)c2cc(Br)cc3cccnc23)cc(N2CCN(C)CC2)n1 [Compound D45] | 3
Cc1nc(CN(C)c2cc(C#N)cc3cccnc23)cc(N2CCN(C)CC2)n1 [Compound D46] | 53
Cc1nc(CN(C)c2cc(S(C)(=O)=O)cc3cccnc23)cc(N2CCN(C)CC2)n1 [Compound D47] | 13
Cc1nc(CN(C)c2c(C(F)(F)F)ccc3cccnc23)cc(N2CCN(C)CC2)n1 [Compound D48] | 928
Cc1nc(CN(C)c2c(Br)ccc3cccnc23)cc(N2CCN(C)CC2)n1 [Compound D49] | 4.5
Cc1nc(CN(C)c2c(C#N)ccc3cccnc23)cc(N2CCN(C)CC2)n1 [Compound D50, 8-(methyl((2-methyl-6-(4-methylpiperazin-1-yl)pyrimidin-4-yl)methyl)amino)quinoline-7-carbonitrile] | 14
Cc1nc(CN(C)c2c(S(C)(=O)=O)ccc3cccnc23)cc(N2CCN(C)CC2)n1 [Compound D51] | 2090
Cc1nc(CN(C)c2cc(F)cc3cccnc23)cc(N2CCN(C)CC2CO)n1 (stereo not drawn) [Compound D52] | 4.5
Cc1nc(CN(C)c2cc(F)cc3cccnc23)cc(N2CCN(C)C(CO)C2)n1 (stereo not drawn) [Compound D53] | 6.7
CN1CCN(c2cc(CN(C)c3cccc4cccnc34)nc(CO)n2)CC1 [Compound D54] | 7.2
Cc1nc(CN(C)c2cc(CO)cc3cccnc23)cc(N2CCN(C)CC2)n1 [Compound D55, (8-(methyl((2-methyl-6-(4-methylpiperazin-1-yl)pyrimidin-4-yl)methyl)amino)quinolin-6-yl)methanol] | 39
Cc1nc(CN(C)c2c(CO)ccc3cccnc23)cc(N2CCN(C)CC2)n1 [Compound D56] | 5.5
Cc1nc(CN(C)c2ccc(NS(C)(=O)=O)c3cccnc23)cc(N2CCN(C)CC2)n1 [Compound D57, N-(8-(methyl((2-methyl-6-(4-methylpiperazin-1-yl)pyrimidin-4-yl)methyl)amino)quinolin-5-yl)methanesulfonamide] | 2880
Cc1nc(CN(C)c2cc(NS(C)(=O)=O)cc3cccnc23)cc(N2CCN(C)CC2)n1 [Compound D58, N-(8-(methyl((2-methyl-6-(4-methylpiperazin-1-yl)pyrimidin-4-yl)methyl)amino)quinolin-6-yl)methane sulfonamide] | 55
Cc1nc(CN(C)c2c(NS(C)(=O)=O)ccc3cccnc23)cc(N2CCN(C)CC2)n1 [Compound D59] | 450

The remaining lines, values ahead:

IC50 [nM] | Compound
0.2 | Cc1cccnc1[C@@H]1CCCN1Cc1cn2c(N3CCN(C)CC3)cccc2n1 [Compound C38, (S)-5-(4-methylpiperazin-1-yl)-2-((2-(3-methylpyridin-2-yl)pyrrolidin-1-yl)methyl)imidazo11,2-alpyridine]
0.1 | Cc1cccnc1[C@@H]1CCCN1Cc1nc2cccc(N3CCN(C)CC3)n2c1CO [Compound C39, (S)-(5-(4-methylpiperazin-1-yl)-2-((2-(3-methylpyridin-2-yl)pyrrolidin-1-yl)methyl)imidazo[1,2-a]pyridin-3-yl)methanol]
0.63 | Cc1nc(CN(C)c2cccc3cccnc23)cc(N2CCCN(C)CC2)n1 [Compound D3]
2.1 | Cc1nc(CN(C)c2cccc3cccnc23)cc(N2CCN(CCO)CC2)n1 [Compound D5]
2.4 | Cc1nc(CN(C)c2cccc3cccnc23)cc(N2CCC(N(C)C)CC2)n1 [Compound D6]
0.75 | Cc1nc(CN(C)c2cccc3cccnc23)cc(N2CCC(N(C)C)C2)n1 (stereo not drawn) [Compound D7]
1.4 | Cc1nc(CN(C)c2cccc3cccnc23)cc(N2CCN(C3CC3)CC2)n1 [Compound D8]
0.59 | CCc1nc(CN(C)c2cccc3cccnc23)cc(N2CCN(C)CC2)n1 [Compound D9]
2.9 | CN1CCN(c2cc(CN(C)c3cccc4cccnc34)nc(C3CC3)n2)CC1 [Compound D10]
0.61 | CSc1nc(CN(C)c2cccc3cccnc23)cc(N2CCN(C)CC2)n1 [Compound D12]
0.4 | Cc1cc(N(C)Cc2cc(N3CCN(C)CC3)nc(C)n2)c2ncccc2c1 [Compound D15]
2.7 | Cc1nc(CN(C)c2ccc(C)c3cccnc23)cc(N2CCN(C)CC2)n1 [Compound D16]
0.79 | Cc1nc(CN(C)c2cc(F)cc3cccnc23)cc(N2CCN(C)CC2)n1 [Compound D18]
0.4 | Cc1nc(CN(C)c2ccc(F)c3cccnc23)cc(N2CCN(C)CC2)n1 [Compound D19]
2.3 | Cc1nc(CN(c2cccc3cccnc23)C2CC2)cc(N2CCN(C)CC2)n1 [Compound D26]
1.7 | Cc1nc(CN(CCCCNC(=O)OC(C)(C)C)c2cccc3cccnc23)cc(N2CCN(C)CC2)n1 [Compound D27]
1.25 | Cc1nc(CN(CCCC(N)=O)c2cccc3cccnc23)cc(N2CCN(C)CC2)n1 [Compound D31, 4-(((2-methyl-6-(4-methylpiperazin-1-yl)pyrimidin-4-yl)methyl)(quinolin-8-yl)amino)butanamide]
0.53 | CCN(Cc1cc(N2CCN(C)CC2)nc(C)n1)c1cc(C)cc2cccnc12 [Compound D32]
0.51 | Cc1nc(CN(C)c2cccc3cccnc23)c(C)c(N2CCN(C)CC2)n1 [Compound D33]
0.83 | Cc1nc(CN(C)c2cccc3cccnc23)c(F)c(N2CCN(C)CC2)n1 [Compound D34]
1.2 | Cc1nc(CN(C)c2cccc3cccnc23)c(Cl)c(N2CCN(C)CC2)n1 [Compound D35]
0.95 | Cc1nc(CN(C)c2cccc3cccnc23)c(CO)c(N2CCN(C)CC2)n1 [Compound D37]
0.18 | CN1CCN(c2cccc3nc(CN(C)c4cccc5cccnc45)cn23)CC1 [Compound D38]
0.088 | CN1CCN(c2cccc3nc(CN(C)c4cccc5cccnc45)c(CO)n23)CC1 [Compound D39]
